Results taken from patent US7253189B2, “Cannabinoid receptor ligands” (Schering Corporation, priority 2002, dated 2007).

biological target: T1, recombinant human cannabinoid CB2 receptor (Homo sapiens, UniProt P34972); assay: competition with [3H] CP-55,940 for binding to recombinant cannabinoid CB2 receptor membranes; details: not given
T1 construct: purchased Receptor Biology RB-HCB2
Method: Potential cannabinoid receptor ligands were screened for the ability to compete with [^3H] CP-55,940 for binding to recombinant cannabinoid receptors. Test compounds were serially diluted in Diluent Buffer (50 mM Tris pH 7.1, 1 mM EDTA, 3 mM MgCl2, 0.1% BSA, 10% DMSO, 0.36% methyl cellulose (Sigma M-6385)) from stocks prepared in 100% DMSO. Aliquots (10 μl) were transferred into 96-well microtiter plates. Membrane preparations of recombinant human cannabinoid CB2 receptor (Receptor Biology #RB-HCB2) or recombinant human cannabinoid CB1 receptor (Receptor Biology #RB-HCB1) were diluted to 0.3 mg/ml in Binding Buffer (50 mM Tris pH 7.2, 1 mM EDTA, 3 mM MgCl2, 0.1% BSA). Aliquots (50 μl) were added to each well of the microtiter plate. The binding reactions were initiated by addition of [^3H] CP-55,940 (New England Nuclear # NET 1051; specific activity=180 Ci/mmol available from New England Nuclear) to each well of the microtiter plate. Each 100 μl reaction mixture contained 0.48 nM [^3H] CP-55,940, 15 ug membrane protein in binding buffer containing 1% DMSO and 0.036% methyl cellulose. Following incubation for 2 hours at room temperature, the reaction mixtures were filtered through 0.5% polyethylenimine-coated GF/C filter plates (UniFilter-96, Packard) with a TomTec Mark 3U Harvester (Hamden, Conn.). The filter plate was washed 5 times with binding buffer, rotated 180°, then re-washed 5 times with binding buffer. Bound radioactivity was quantitated following addition of 30 μl of Packard Microscint 20 scintillant in a Packard TopCount NXT microplate scintillation counter. Non-linear regression analysis of the resulting data was performed using Prism 2.0b (from GraphPad, San Diego, Calif.).
The activities (potencies) for the compounds of the invention are determined by measuring their Ki values.

T1 sequence (P34972 whole entry): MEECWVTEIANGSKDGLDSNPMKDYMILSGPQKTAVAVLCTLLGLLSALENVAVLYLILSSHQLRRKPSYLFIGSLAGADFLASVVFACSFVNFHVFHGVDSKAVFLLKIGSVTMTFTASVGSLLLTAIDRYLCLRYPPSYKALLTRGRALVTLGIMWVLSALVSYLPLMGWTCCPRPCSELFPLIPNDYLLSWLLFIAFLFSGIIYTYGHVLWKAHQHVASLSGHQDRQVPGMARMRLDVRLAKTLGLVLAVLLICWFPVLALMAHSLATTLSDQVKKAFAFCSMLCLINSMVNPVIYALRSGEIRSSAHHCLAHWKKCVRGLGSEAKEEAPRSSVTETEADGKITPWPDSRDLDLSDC

| Compound | Ki |
| --- | --- |
| CS(=O)(=O)NC1CCc2cc(C(=O)c3ccc(OC(F)(F)F)cc3S(=O)(=O)c3ccccc3F)ccc21 (stereo not drawn) [Compound 2] | < 20 nM |
| CS(=O)(=O)NC1CCc2cc(S(=O)(=O)c3ccc(C4CC4)cc3S(=O)(=O)c3ccccn3)ccc21 (stereo not drawn) [Compound 9] | < 20 nM |

same assay, conditions: 0.48 nM [3H] CP-55,940, 15 ug membrane protein, 2 hours at room temperature; read-out: CB2 Ki

| Compound | Ki |
| --- | --- |
| COc1ccc(S(=O)(=O)c2ccc3c(c2)CCC3NS(=O)(=O)C(F)(F)F)c(S(=O)(=O)c2ccccc2F)c1 (stereo not drawn) [Compound 5] | < 20 nM |
| O=S(=O)(c1ccc2c(c1)CCC2NS(=O)(=O)C(F)(F)F)c1ccc(Cl)cc1S(=O)(=O)c1ccccc1F (stereo not drawn) [Compound 6] | < 20 nM |

Next, values leading:

| Ki | Compound |
| --- | --- |
| < 20 nM | CS(=O)(=O)NC1CCc2cc(S(=O)(=O)c3ccc(Cl)cc3S(=O)(=O)c3ccccn3)ccc21 (stereo not drawn) [Compound 8] |
| < 20 nM | CS(=O)(=O)NC1CCc2cc(S(=O)(=O)c3cc4ccccc4n3S(=O)(=O)c3ccccn3)ccc21 (stereo not drawn) [Compound 10] |
| < 20 nM | O=S(=O)(c1ccc2c(c1)CCC2NS(=O)(=O)C(F)(F)F)c1ccc(C2CC2)cc1S(=O)(=O)c1ccccn1 (stereo not drawn) [Compound 12] |
| < 20 nM | O=C(NC1CCc2cc(S(=O)(=O)c3ccc(C4CC4)cc3S(=O)(=O)c3ccccn3)ccc21)C(F)(F)F (stereo not drawn) [Compound 19] |
| < 20 nM | O=C(NC1CCc2cc(Cc3ccc(OC(F)(F)F)cc3S(=O)(=O)c3ccccc3F)ccc21)C(F)(F)F (stereo not drawn) [Compound 23] |
